The test system of assay [1] is Substance P Induced Relaxation of the Pig Coronary Arteries. Briefly: Antagonism of substance P induced relaxation of the pig coronary arteries. Particulars: 30 min incubation. The gist of the method:
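Inverted pig coronary artery segments, endothelium outside, in Krebs-Henseleit at 37 °C (95/5 O2/CO2), isometric tension recorded. After prostaglandin F2α (10^-5 M) precontraction, substance P (3×10^-10 M and 10^-9 M cumulative) relaxation repeated after 30 min incubation with test compound.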

Assay [2] concerns Substance P Induced Plasma Extravasation. Briefly: Antagonism of substance P induced plasma extravasation in guinea-pigs. Particulars: Cavia porcellus, 1 hour prior to substance P. The assay is classed as in vivo, guinea-pig. The protocol: Antagonism of Substance P Induced Plasma Extravasation in Guinea-pigs
Plasma travasation was induced by injection of substance P (2 mg/kg) in the femoral artery of female guinea-pigs. Evans Blue dye (30 mg/kg) was injected simultaneously. The test compound or solvent was administered subcutaneous (s.c.) or orally (p.o.) 1 hour prior to substance P injection. 10 minutes after challenge, the animals were checked for blue colouring (a direct measure for plasma extravasation) of the nose, the forepaws, and the conjunctiva. 30 minutes after challenge, the animals were sacrificed by CO2 gas inhalation and checked for blue colouring of the trachea and the urinary bladder. […]

Setting [3] is: test compound concentration 3 × 10^-9 (unit not given).
Where [4] appears, read: sc, 10 min, s.c., conjunctiva, read-out: lowest active dose (LAD), conjunctiva.
The mark [5] stands for this setting: sc, 10 min, s.c., forepaws, read-out: lowest active dose (LAD), forepaws.
Where [6] appears, read: sc, 10 min, s.c., nose, read-out: lowest active dose (LAD), nose.
The mark [7] stands for this setting: sc, 0.5 h, s.c., trachea, read-out: lowest active dose (LAD), trachea.
The mark [8] stands for this setting: sc, 0.5 h, s.c., urinary bladder, read-out: lowest active dose (LAD), urinary bladder.
The mark [9] stands for this setting: test compound concentration 3 × 10^-8 (unit not given).
[10] abbreviates: po, 10 min, p.o., conjunctiva, read-out: lowest active dose (LAD), conjunctiva.
Setting [11] is: po, 10 min, p.o., forepaws, read-out: lowest active dose (LAD), forepaws.
Setting [12] is: po, 10 min, p.o., nose, read-out: lowest active dose (LAD), nose.
[13] abbreviates: po, 0.5 h, p.o., trachea, read-out: lowest active dose (LAD), trachea.
Setting [14] is: po, 0.5 h, p.o., urinary bladder, read-out: lowest active dose (LAD), urinary bladder.

Like-named read-outs stand apart in the source and are kept apart here.

Take `Cc1cc(C)cc(C(=O)N2CC[C@@H](N3CCC(=C4c5sccc5CCn5ccnc54)CC3)C[C@H]2Cc2ccccc2)c1` (relative stereo) [Compound 35]: the “% inhibition of the response to 10^-9 M substance P” value in assay [1] (setting [3]) turned out to be 27.7%. For the same compound, the minimal effective dose in assay [2] (setting [4]), in assay [2] (setting [5]), in assay [2] (setting [6]), in assay [2] (setting [7]) and in assay [2] (setting [8]) was 10 mg/kg throughout.
`O=Cc1cnc2n1CCc1ccccc1C2=C1CCN([C@@H]2CCN(C(=O)c3cc(C(F)(F)F)cc(C(F)(F)F)c3)[C@@H](Cc3ccccc3)C2)CC1` (relative stereo) [Compound 16]: the “% inhibition of the response to 10^-9 M substance P” value in assay [1] (setting [3]) came out at 98.9%. The minimal effective dose in assay [2] (setting [4]) was 2.5 mg/kg; in assay [2] (setting [5]) it was 2.5 mg/kg; in assay [2] (setting [6]), 2.5 mg/kg; in assay [2] (setting [7]), 10 mg/kg; in assay [2] (setting [8]), 10 mg/kg.
As to `O=C(c1cc(C(F)(F)F)cc(C(F)(F)F)c1)N1CC[C@@H](N2CCC(=C3c4ccccc4CCn4ccnc43)CC2)C[C@@H]1Cc1ccccc1` (relative stereo) [Compound 22], the “% inhibition of the response to 10^-9 M substance P” value in assay [1] (setting [3]) is reported as 83.2%. In addition, the minimal effective dose in assay [2] (setting [4]), in assay [2] (setting [5]), in assay [2] (setting [6]), in assay [2] (setting [7]) and in assay [2] (setting [8]) was 10 mg/kg each time.
Turning to `Cc1cnc2n1CCc1ccccc1C2=C1CCN([C@H]2CCN(C(=O)c3cc(C(F)(F)F)cc(C(F)(F)F)c3)[C@H](Cc3ccccc3)C2)CC1` (relative stereo) [Compound 54], in assay [1] (setting [3]), the “% inhibition of the response to 10^-9 M substance P” value was 69.8%. The minimal effective dose in assay [2] (setting [4]), in assay [2] (setting [5]), in assay [2] (setting [6]), in assay [2] (setting [7]) and in assay [2] (setting [8]) was 2.5 mg/kg each time.
In the case of `Cc1cc(C)cc(C(=O)N2CC[C@@H](N3CCC4(CC3)c3ccccc3CCn3ccnc34)C[C@@H]2Cc2ccccc2)c1` (relative stereo) [Compound 120], in assay [1] (setting [3]), the “% inhibition of the response to 10^-9 M substance P” value was found to be 7.7%. For the same compound, the minimal effective dose worked out at 2.5 mg/kg in assay [2] (setting [4]); 2.5 mg/kg in assay [2] (setting [5]); 2.5 mg/kg in assay [2] (setting [6]); 10 mg/kg in assay [2] (setting [7]); 10 mg/kg in assay [2] (setting [8]).
For the compound `Cc1cc(C)cc(C(=O)N2CC[C@H](N3CCC(=C4c5ccsc5C(=O)Cn5ccnc54)CC3)C[C@@H]2Cc2ccccc2)c1` (relative stereo) [Compound 111], the “% inhibition of the response to 10^-9 M substance P” value in assay [1] (setting [3]) is recorded as 22.6%. The minimal effective dose in assay [2] (setting [4]), in assay [2] (setting [5]), in assay [2] (setting [6]), in assay [2] (setting [7]) and in assay [2] (setting [8]) was 10 mg/kg throughout.
On to `Cc1cc(C)cc(C(=O)N2CC[C@H](N3CCC(=C4c5ccccc5CCn5ccnc54)CC3)C[C@H]2Cc2ccccc2)c1` (relative stereo) [Compound 41], for which the “% inhibition of the response to 10^-9 M substance P” value in assay [1] (setting [3]) is recorded as 40.6%. In addition, the minimal effective dose was 2.5 mg/kg in assay [2] (setting [4]); 10 mg/kg in assay [2] (setting [5]); 10 mg/kg in assay [2] (setting [6]); 10 mg/kg in assay [2] (setting [7]); 10 mg/kg in assay [2] (setting [8]).
Regarding `Cn1ccc2c1CCn1ccnc1C2=C1CCN([C@H]2CCN(C(=O)c3cc(C(F)(F)F)cc(C(F)(F)F)c3)[C@@H](Cc3ccccc3)C2)CC1` (racemic) [Compound 3, (±)-cis-1-[3,5-bis(trifluoromethyl)benzoyl]-4-[4-(5,6,7,10-tetrahydro-7-methylimidazo[1,2-a]-pyrrolo[3,2-d]azepin-10-ylidene)-1-piperidinyl]-2-(phenylmethyl)piperidine], in assay [1] (setting [3]), the “% inhibition of the response to 10^-9 M substance P” value came to 37.3%. Besides, the minimal effective dose was 2.5 mg/kg in assay [2] (setting [4]); 2.5 mg/kg in assay [2] (setting [5]); 2.5 mg/kg in assay [2] (setting [6]); 10 mg/kg in assay [2] (setting [7]); 10 mg/kg in assay [2] (setting [8]).
For the compound `Cc1cc(C)cc(C(=O)N2CC[C@H](N3CCC(=C4c5ccsc5CCn5ccnc54)CC3)C[C@H]2Cc2ccccc2)c1` (relative stereo) [Compound 39], the “% inhibition of the response to 10^-9 M substance P” value in assay [1] (setting [3]) was found to be 42.9%. The minimal effective dose in assay [2] (setting [4]) was 2.5 mg/kg; in assay [2] (setting [5]), 2.5 mg/kg; in assay [2] (setting [6]), 2.5 mg/kg; in assay [2] (setting [7]) it was 10 mg/kg; in assay [2] (setting [8]), 10 mg/kg.
`Cn1ccc2c1CCn1ccnc1C2=C1CCN([C@@H]2CCN(C(=O)c3cc(C(F)(F)F)cc(C(F)(F)F)c3)[C@@H](Cc3ccccc3)C2)CC1` (racemic) [Compound 2, (±)-trans-1-[3,5-bis(trifluoromethyl)benzoyl]-4-[4-(5,6,7,10-tetrahydro-7-methylimidazo[1,2-a]pyrrolo[3,2-d]azepin-10-ylidene)-1-piperidinyl]-2-(phenylmethyl)piperidine]: the “% inhibition of the response to 10^-9 M substance P” value in assay [1] (setting [9]) amounted to 96.5%. The minimal effective dose was 0.16 mg/kg in assay [2] (setting [4]); 0.16 mg/kg in assay [2] (setting [5]); 0.16 mg/kg in assay [2] (setting [6]); 2.5 mg/kg in assay [2] (setting [7]); 2.5 mg/kg in assay [2] (setting [8]).
In the case of `COC(=O)c1cnc2n1CCc1ccccc1C2=C1CCN([C@H]2CCN(C(=O)c3cc(C(F)(F)F)cc(C(F)(F)F)c3)[C@@H](Cc3ccccc3)C2)CC1` (racemic) [Compound 17, (±)-methyl cis-11-[1-[1-[3,5-bis(trifluoromethyl)benzoyl]-2-(phenylmethyl)-4-piperidinyl]-4-piperidinylidene]-6,11-dihydro-5H-imidazo[2,1-b][3]benzazepine-3-carboxylate], in assay [1] (setting [3]), the “% inhibition of the response to 10^-9 M substance P” value is recorded as 35.3%. Further, the minimal effective dose in assay [2] (setting [10]), in assay [2] (setting [11]), in assay [2] (setting [12]), in assay [2] (setting [13]) and in assay [2] (setting [14]) was 10 mg/kg throughout.
With `O=C(c1cc(C(F)(F)F)cc(C(F)(F)F)c1)N1CC[C@@H](N2CCC(C3c4ccccc4Cn4c3nc3ccccc34)CC2)C[C@H]1Cc1ccccc1` (mixture of isomers) [Compound 14, (±)-cis-1-[3,5-bis(trifluoromethyl)benzoyl]-4-[4-(6,11-dihydrobenzimidazo[1,2-b]isoquinolin-6-yl)-1-piperidinyl]-2-phenylmethyl)piperidine], in assay [1] (setting [3]), the “% inhibition of the response to 10^-9 M substance P” value came out at 56.6%. For the same compound, the minimal effective dose in assay [2] (setting [10]), in assay [2] (setting [11]), in assay [2] (setting [12]), in assay [2] (setting [13]) and in assay [2] (setting [14]) was 10 mg/kg throughout.
Consider `Cc1cc(C)cc(C(=O)N2CC[C@@H](N3CCC(C4c5ccccc5CCn5ccnc54)CC3)C[C@H]2Cc2ccccc2)c1` (stereo partly drawn) [Compound 26], for which the “% inhibition of the response to 10^-9 M substance P” value in assay [1] (setting [3]) is given as 25.6%. Besides, the minimal effective dose in assay [2] (setting [4]), in assay [2] (setting [5]), in assay [2] (setting [6]), in assay [2] (setting [7]) and in assay [2] (setting [8]) was 10 mg/kg each time.
Regarding `O=C(c1cc(C(F)(F)F)cc(C(F)(F)F)c1)N1CC[C@@H](N2CCC(C3c4ccccc4CCn4ccnc43)CC2)C[C@@H]1Cc1ccccc1` (stereo partly drawn) [Compound 8], in assay [1] (setting [3]), the “% inhibition of the response to 10^-9 M substance P” value is 82.3%. Besides, the minimal effective dose in assay [2] (setting [4]) came to 10 mg/kg; in assay [2] (setting [5]), 2.5 mg/kg; in assay [2] (setting [6]), 2.5 mg/kg; in assay [2] (setting [7]), 10 mg/kg; in assay [2] (setting [8]), 10 mg/kg.
`O=C1Cn2ccnc2C(=C2CCN([C@@H]3CCN(C(=O)c4cc(C(F)(F)F)cc(C(F)(F)F)c4)[C@@H](Cc4ccccc4)C3)CC2)c2ccsc21` (relative stereo) [Compound 107]: the “% inhibition of the response to 10^-9 M substance P” value in assay [1] (setting [3]) is given as 96.3%. The minimal effective dose in assay [2] (setting [10]), in assay [2] (setting [11]), in assay [2] (setting [12]), in assay [2] (setting [13]) and in assay [2] (setting [14]) was 10 mg/kg throughout.
On to `O=C(c1cc(C(F)(F)F)cc(C(F)(F)F)c1)N1CC[C@H](N2CCC(=C3c4ccccc4CCn4c(CO)cnc43)CC2)C[C@@H]1Cc1ccccc1` (racemic) [Compound 4, (±)-cis-1-[3,5-bis(trifluoromethyl)benzoyl]-4-[4-[5,6-dihydro-3-(hydroxymethyl)-11H-imidazo[2,1-b][3]benzazepin-11-ylidene]-1-piperidinyl]-2-(phenylmethyl)piperidine], for which the “% inhibition of the response to 10^-9 M substance P” value in assay [1] (setting [9]) stood at 97.0%. The minimal effective dose in assay [2] (setting [4]), in assay [2] (setting [5]), in assay [2] (setting [6]), in assay [2] (setting [7]) and in assay [2] (setting [8]) was 10 mg/kg throughout.

Source of the values: patent US6251894A, “1-(1,2-disubstituted piperidinyl)-4 (fused imidazole)-piperidine derivatives” (Janssen Pharmaceuticals N.V., priority 1995, dated 2001).
